Data on 12 compounds can be found in US9115064B2, “N-hydroxylsulfonamide derivatives as new physiologically useful nitroxyl donors” (The Johns Hopkins University, priority 2007, dated 2015).

Each structure is given as a SMILES string.

The assay is described as follows: HNO production via N2O quantification (GC headspace analysis, Angeli's salt as benchmark). The settings on record: pH 7.4 in PBS buffer at 37° C.; for Nitrous oxide evolved as % of Angelis salt: relative to Angeli's salt. The assay is classed as physicochemical.

Regarding `[Na+].[Na+].[O-][N+]([O-])=NO` [Angeli's Salt, sodium dioxotrinitrate, reference compound], the “% moles N2O/moles of sample” value is on record as 70.5% and the “Nitrous oxide evolved as % of Angelis salt” value (from here on “Nitrous oxide evolved as %”) is listed as 100%.
In the case of `COC(=O)c1ccccc1S(=O)(=O)NO` [Compound 1, 2-Hydroxysulfamoyl-benzoic acid methyl ester], the “% moles N2O/moles of sample” value came out at 30.5% and the “Nitrous oxide evolved as %” value came to 43%.
`O=C(O)c1cccc(S(=O)(=O)NO)c1` [Compound 2, 3-Hydroxysulfamoyl-benzoic acid]: the “% moles N2O/moles of sample” value is recorded as 19% and the “Nitrous oxide evolved as %” value came out at 27%.
Regarding `O=C(O)c1ccc(Cl)c(S(=O)(=O)NO)c1` [Compound 3, 4-Chloro-3-hydroxysulfamoyl-benzoic acid], the “% moles N2O/moles of sample” value was determined as 81.5% and the “Nitrous oxide evolved as %” value amounted to 116%.
For `O=C(O)c1ccc(Br)c(S(=O)(=O)NO)c1` [Compound 4, 4-Bromo-3-hydroxysulfamoyl-benzoic acid], the “% moles N2O/moles of sample” value is recorded as 82% and the “Nitrous oxide evolved as %” value is 117%.
Turning to `O=C(c1ccc(Br)c(S(=O)(=O)NO)c1)N1CCOCC1` [Compound 5, -Bromo-N-hydroxy-5-(morpholine-4-carbonyl)-benzenesulfonamide], the “% moles N2O/moles of sample” value was found to be 80.5% and the “Nitrous oxide evolved as %” value was determined as 115%.
With `CN(C)C(=O)c1ccc(Br)c(S(=O)(=O)NO)c1` [Compound 6, 4-Bromo-3-(hydroxysulfamoyl)-N,N-dimethylbenzamide], the “% moles N2O/moles of sample” value is recorded as 81% and the “Nitrous oxide evolved as %” value is 116%.
For `CN(C)C(=O)c1ccc(Cl)c(S(=O)(=O)NO)c1` [Compound 7, 4-Chloro-3-(hydroxysulfamoyl)-N,N-dimethylbenzamide], the “% moles N2O/moles of sample” value stood at 85% and the “Nitrous oxide evolved as %” value is reported as 122%.
Taken in the same sequence, the figures for `O=S(=O)(NO)c1ccccc1S(=O)(=O)N1CCOCC1` [Compound 8, N-Hydroxy-2-(morpholin-4-ylsulfonyl)benzene sulfonamide] were 86% and 126%.
On to `O=C(OCCN1CCOCC1)c1ccc(Cl)c(S(=O)(=O)NO)c1` [Compound 9, -(Morpholin-4-yl)ethyl 4-chloro-3-(hydroxysulfamoyl)benzoate], for which the “% moles N2O/moles of sample” value is reported as 65% and the “Nitrous oxide evolved as %” value stood at 93%.
Taken in the same sequence, the figures for `O=C(NCCN1CCOCC1)c1cc(Br)c(S(=O)(=O)NO)s1` [Compound 97, 4-Bromo-5-(hydroxysulfamoyl)-N-[2-(morpholin-4-yl)ethyl]thiophene-2-carboxamide] were 92% and 131%.
Taken in the same sequence, the figures for `O=C(c1cc(Br)c(S(=O)(=O)NO)s1)N1CCOCC1` [Compound 98, 3-Bromo-N-hydroxy-5-(morpholin-4-ylcarbonyl)thiophene-2-sulfonamide] were 81% and 116%.
